These results are taken from ChEMBL document CHEMBL4177711, “Synthesis, in vitro and in silico evaluation of novel trans-stilbene analogues as potential COX-2 inhibitors” (Bioorg Med Chem, 2018).

SMILES strings stand for the structures.

Data set [1] addresses T1, Prostaglandin G/H synthase 1 (Ovis aries, UniProt P05979).
T1 sequence (P05979 whole entry): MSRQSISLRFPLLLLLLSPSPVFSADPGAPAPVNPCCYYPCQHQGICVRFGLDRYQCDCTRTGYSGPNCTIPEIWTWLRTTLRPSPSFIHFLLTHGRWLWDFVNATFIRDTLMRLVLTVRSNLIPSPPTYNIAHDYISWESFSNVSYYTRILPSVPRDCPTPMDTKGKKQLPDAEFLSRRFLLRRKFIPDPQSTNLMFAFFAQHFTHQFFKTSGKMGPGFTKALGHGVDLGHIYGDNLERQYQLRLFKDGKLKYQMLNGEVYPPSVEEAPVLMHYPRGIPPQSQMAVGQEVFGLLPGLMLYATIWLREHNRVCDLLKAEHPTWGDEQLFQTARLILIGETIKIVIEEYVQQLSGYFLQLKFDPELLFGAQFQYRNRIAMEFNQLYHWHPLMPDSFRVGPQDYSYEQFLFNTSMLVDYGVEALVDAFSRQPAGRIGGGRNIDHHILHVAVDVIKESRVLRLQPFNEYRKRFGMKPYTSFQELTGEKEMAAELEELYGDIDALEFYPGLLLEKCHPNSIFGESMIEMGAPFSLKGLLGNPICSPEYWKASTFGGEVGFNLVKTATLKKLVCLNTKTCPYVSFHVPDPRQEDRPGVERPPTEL
Nature of the data set: Inhibition of ovine COX1 assessed as reduction in PGF2alpha level using arachidonic acid as substrate preincubated for 10 mins followed by substrate addition by ELISA. For orientation: An ELISA detects its analyte on a solid surface through an enzyme-linked reagent.

The target in data set [2] is T2, COX1 (Prostaglandin G/H synthase 1) (Ovis aries, UniProt P05979).
T2 sequence (P05979 whole entry): T1 sequence (P05979 whole entry)
Briefly: Inhibition of ovine COX1 assessed as reduction in PGF2alpha level at 100 uM using arachidonic acid as substrate preincubated for 10 mins followed by substrate addition by ELISA relative to control. The conditions noted are these: sheep, ovine COX1 enzyme, probe arachidonic acid.

The target of data set [3] is T3, Prostaglandin G/H synthase 2 (Homo sapiens) (UniProt P35354).
T3 sequence (whole entry): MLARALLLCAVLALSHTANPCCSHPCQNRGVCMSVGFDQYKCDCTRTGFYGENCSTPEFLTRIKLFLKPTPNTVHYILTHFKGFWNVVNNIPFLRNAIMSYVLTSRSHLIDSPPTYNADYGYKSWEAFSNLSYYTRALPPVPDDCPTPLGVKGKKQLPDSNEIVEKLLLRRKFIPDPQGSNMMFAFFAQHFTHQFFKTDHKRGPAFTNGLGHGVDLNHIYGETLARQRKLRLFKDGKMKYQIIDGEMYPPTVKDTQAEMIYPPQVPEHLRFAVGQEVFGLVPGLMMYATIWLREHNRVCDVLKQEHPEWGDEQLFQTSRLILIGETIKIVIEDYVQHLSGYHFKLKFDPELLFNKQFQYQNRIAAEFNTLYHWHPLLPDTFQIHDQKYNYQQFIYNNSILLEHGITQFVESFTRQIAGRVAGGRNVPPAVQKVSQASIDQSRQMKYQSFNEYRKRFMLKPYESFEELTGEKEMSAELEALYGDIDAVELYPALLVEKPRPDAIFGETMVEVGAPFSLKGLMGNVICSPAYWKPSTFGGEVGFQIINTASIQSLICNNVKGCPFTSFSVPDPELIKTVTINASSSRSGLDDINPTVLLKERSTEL
Nature of the data set: Inhibition of human COX2 assessed as reduction in PGF2alpha level at 100 uM using arachidonic acid as substrate preincubated for 10 mins followed by substrate addition by ELISA relative to control.

The nature of data set [4]: Selectivity index, ratio of IC50 for ovine COX1 to IC50 for human COX2.
In data set [5] the target is T4, Prostaglandin G/H synthase 2 (Homo sapiens, UniProt P35354).
T4 sequence (P35354 whole entry): T3 sequence (whole entry)
Nature of the data set: Inhibition of human COX2 assessed as reduction in PGF2alpha level using arachidonic acid as substrate preincubated for 10 mins followed by substrate addition by ELISA.

Data set [6] deals with MCF7. Nature of the data set: Antiproliferative activity against human MCF7 cells after 72 hrs by MTT assay. The conditions noted are these: MCF7, 72 h.
For data set [7], the system named is MCF7. Nature of the data set: Antiproliferative activity against human MCF7 cells up to 100 uM after 72 hrs by MTT assay relative to control. It is filed as functional.
The target in data set [8] is T3, Prostaglandin G/H synthase 2 (Homo sapiens). Nature of the data set: Inhibition of COX2 in human MCF7 cells assessed as reduction in PGE2 level after 72 hrs by ELISA. It is filed as cell-based.
The nature of data set [9]: Solubility of the compound in DMEM culture medium at >12.5 uM. The class given is physicochemical.
In data set [10] the target is T3, Prostaglandin G/H synthase 2 (Homo sapiens). Briefly: Inhibition of COX2 in human MCF7 cells assessed as reduction in PGE2 level at 6.25 uM after 72 hrs by ELISA relative to control. The class given is cell-based.
For data set [11] the target is unchanged. Nature of the data set: Inhibition of COX2 in human MCF7 cells assessed as reduction in PGE2 level at 12.5 uM after 72 hrs by ELISA relative to control. It is filed as cell-based.

`CCOc1ccc(/C=C/c2ccc([N+](=O)[O-])cc2)cc1`: the IC50 (commonly the concentration that inhibits the measured activity by half) in [1] was 85 µM; in data set [5], 4.02 µM. Moreover, in data set [2], the inhibition – broadly, the drop in the measured response relative to a control, in per cent – at 100 µM came out at 54.6%. Moreover, the inhibition in data set [3] is 77.4%. For the same molecule, the Ratio IC50 in [4] came to 21.2.
For the molecule `O=[N+]([O-])c1ccc(/C=C/c2ccc(O)cc2)c([N+](=O)[O-])c1`, the inhibition at 100 µM in data set [2] is 6.09%. In [3], the inhibition came to 29%.
Take `O=[N+]([O-])c1ccc(/C=C/c2ccc(OCc3ccccc3)cc2)cc1`: the inhibition at 100 µM in [2] amounted to 3.36%. The inhibition in data set [3] was 15.7%.
Turning to `CCOc1ccc(/C=C/c2ccc([N+](=O)[O-])cc2[N+](=O)[O-])cc1`, the inhibition at 100 µM in [2] was 14.1%. For the same molecule, the inhibition in [3] is 40.4%.
Take `Oc1ccccc1/C=C/c1ccncc1`: the inhibition at 100 µM in data set [2] is 9.71%. Further, the inhibition in [3] stood at 8.56%.
As to `COC(=O)COc1ccc(/C=C/c2ccc([N+](=O)[O-])cc2)cc1`, the results for the IC50 in [1] and in [5] were 40.8 µM and 7.46 µM, respectively. For the same molecule, the inhibition at 100 µM in [2] worked out at 59.6%. Besides, the inhibition in data set [3] was 66.3%. In addition, the Ratio IC50 in data set [4] was determined as 4.13.
In the case of `CC(=O)Oc1ccc(/C=C/c2ccc(OC(C)=O)cc2)cc1`, the inhibition at 100 µM in data set [2] stood at 3.16%. In addition, the inhibition in data set [3] worked out at 23.4%.
As to `COC(=O)COc1ccc(/C=C/c2ccc(OCC(=O)OC)cc2)cc1`, the inhibition at 100 µM in data set [2] came to 28.5%. For the same molecule, the inhibition in [3] turned out to be 44.5%.
In the case of `Oc1ccc(/C=C/c2cc[n+](Cc3ccccc3Cl)cc2)cc1`, the inhibition at 100 µM in data set [2] is 1.57%. In addition, in data set [3], the inhibition was 10.2%.
In the case of `CCOc1cccc(/C=C/c2ccc([N+](=O)[O-])cc2[N+](=O)[O-])c1`, the inhibition at 100 µM in data set [2] was found to be 15.4%. The inhibition in [3] came to 27.5%.
For the molecule `Oc1cccc(/C=C/c2ccncc2)c1`, the inhibition at 100 µM in data set [2] is 23.1%. In [3], the inhibition is 20.4%.
Turning to `Oc1ccc(/C=C/c2cc[n+](Cc3cccc(Cl)c3)cc2)cc1`, in [2], the inhibition at 100 µM is 11.2%. In addition, the inhibition in data set [3] was 21.9%.
On to `O=[N+]([O-])c1ccc(/C=C/c2ccc(O)cc2)cc1`, for which the inhibition at 100 µM in data set [2] turned out to be 22.2%. Besides, the inhibition in data set [3] came out at 37.1%.
As for `COc1ccc(/C=C/c2ccc([N+](=O)[O-])cc2)cc1OC`, the IC50 was 0.659 µM in data set [1] and 4.69 µM in data set [5]. Further, the Ratio IC50 in data set [4] was 0.14.
As for `Oc1ccc(/C=C/c2ccc(Cl)cc2)cc1`, the inhibition at 100 µM in data set [2] stood at 9.64%. Besides, in [3], the inhibition came to 3.73%.
`CC(=O)Oc1ccc(/C=C/c2ccccc2)cc1`: in [2], the inhibition at 100 µM stood at 20.5%. Also, in data set [3], the inhibition came out at 39.9%.
For `Oc1ccc(/C=C/c2ccncc2)cc1`, the inhibition at 100 µM in data set [2] is 17.3%. In addition, the inhibition in data set [3] is 8.88%.
As for `Oc1ccc(/C=C/c2ccc(Br)cc2)cc1`, the inhibition at 100 µM in data set [2] was determined as 6.8%. Besides, in [3], the inhibition was determined as 14.3%.
For the molecule `CC(=O)Oc1cccc(/C=C/c2ccc([N+](=O)[O-])cc2[N+](=O)[O-])c1`, the inhibition at 100 µM in data set [2] is 28.3%. Moreover, in data set [3], the inhibition is 34.1%.
As to `Oc1ccc(/C=C/c2cc[n+](Cc3ccc(Cl)cc3)cc2)cc1`, the inhibition at 100 µM in [2] came out at 15.7%. The inhibition in [3] came out at 5.38%.
`CCOc1cccc(/C=C/c2ccc([N+](=O)[O-])cc2)c1`: in [2], the inhibition at 100 µM is 2.42%. Besides, the inhibition in data set [3] is 23.4%.
The molecule `Cc1ccc(-c2cc(C(F)(F)F)nn2-c2ccc(S(N)(=O)=O)cc2)cc1` [CELECOXIB] yielded an IC50 with MCF7 [6] of 49.7 µM.
On to `COc1cc(/C=C/c2ccc([N+](=O)[O-])cc2)cc(OC)c1OC`, for which the IC50 was 2.67 µM in [1] and 2.17 µM in [5]. Further, the Ratio IC50 in data set [4] was 1.23. Besides, the Activity in the data set with MCF7 [7] was 30%.
For the molecule `O=[N+]([O-])c1ccc(/C=C/c2ccccc2)cc1`, the inhibition at 100 µM in [2] was 16.3%. Besides, in data set [3], the inhibition came out at 35%.
Take `COC(=O)COc1ccc(/C=C/c2ccc(Cl)cc2)cc1`: the results for the IC50 in data set [1] and in [5] were 41 µM and 7.52 µM, respectively. Moreover, the inhibition at 100 µM in [2] came to 59.3%. In [3], the inhibition came out at 71.8%. The Ratio IC50 in [4] turned out to be 5.45.
As for `CCOc1ccc(/C=C/c2ccc(Cl)cc2)cc1`, the inhibition at 100 µM in [2] is 39.2%. Besides, in data set [3], the inhibition was determined as 12.3%.
Take `O=[N+]([O-])c1ccc(/C=C/c2cc(O)c(O)c(O)c2)cc1`: the inhibition result in data set [8] is “Dose-dependent effect”; in data set [10], 24.1%; in data set [11] it was 33.9%. Moreover, the IC50 in [1] was 17.5 µM; in [5] it was 0.279 µM. The solubility entry in data set [9] was “Insoluble”. Further, in [4], the Ratio IC50 was determined as 62.8. For the same molecule, in the data set on MCF7 [7], the Activity was determined as 30%.
In the case of `CCOc1ccc(/C=C/c2ccccc2)cc1`, the inhibition at 100 µM in [2] was 32.3%. Besides, in data set [3], the inhibition came to 40.8%.
Regarding `Oc1ccc(/C=C/c2ccc(O)cc2)cc1` [TRANS-4,4'-DIHYDROXYSTILBENE], in data set [2], the inhibition at 100 µM turned out to be 4.92%. The inhibition in data set [3] came out at 11.1%.
